From ChEMBL document CHEMBL1137106, “Piperazinebenzylamines as potent and selective antagonists of the human melanocortin-4 receptor” (Bioorg Med Chem Lett, 2004)

Key:
Melanocortin receptor 4 [1] = molecular target: T1, Melanocortin receptor 4 (Homo sapiens, UniProt P32245); assay: Binding affinity towards human melanocortin 4 receptor expressed in HEK 293 cells was determined by using [125I]NDP-MSH as radioligand; type: cell-based, HEK293
Cell line [2] = assay: Percentage of alpha-MSH stimulated cAMP level at 10 uM; type: functional, Homo sapiens
Cell line [3] = assay: Effective concentration required for alpha-MSH stimulated cAMP production at 10 uM; type: functional, cell-based; settings: Homo sapiens
Cell line [4] = assay: Effective concentration required for alpha-MSH stimulated cAMP production; type: functional, cell-based; settings: Homo sapiens
Melanocortin receptor 4 [5] = molecular target: T1, Melanocortin receptor 4; assay: Tested for inhibition of binding to MC4 receptor
Cell line [6] = assay: Concentration required for inhibition of alpha-MSH stimulated cAMP production by 50%; type: functional, cell-based; settings: Homo sapiens
[7] = molecular target: T2, Melanocyte-stimulating hormone receptor (Homo sapiens, UniProt Q01726); assay: Binding affinity towards human melanocortin 1 receptor expressed in HEK 293 cells was determined by using [125I]NDP-MSH as radioligand; type: cell-based, HEK293
Target sequence in this assay (Q01726 whole entry): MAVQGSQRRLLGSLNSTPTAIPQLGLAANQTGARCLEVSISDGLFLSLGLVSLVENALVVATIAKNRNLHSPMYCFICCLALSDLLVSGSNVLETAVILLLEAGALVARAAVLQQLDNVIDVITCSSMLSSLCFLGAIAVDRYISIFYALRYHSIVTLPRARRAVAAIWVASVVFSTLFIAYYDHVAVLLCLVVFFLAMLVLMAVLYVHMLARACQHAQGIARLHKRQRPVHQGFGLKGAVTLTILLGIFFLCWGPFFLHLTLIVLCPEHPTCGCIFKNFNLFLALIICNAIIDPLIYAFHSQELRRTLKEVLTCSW

Melanocortin receptor 3 = Melanocortin receptor 3 (Homo sapiens, UniProt P41968); assay: Binding affinity towards human melanocortin 3 receptor expressed in HEK 293 cells was determined by using [125I]NDP-MSH as radioligand; type: cell-based, HEK293
Melanocortin receptor 5 = Melanocortin receptor 5 (Homo sapiens, UniProt P33032); assay: Binding affinity towards human melanocortin 5 receptor expressed in HEK 293 cells was determined by using [125I]NDP-MSH as radioligand; type: cell-based, HEK293
[8] = molecular target: T2, Melanocyte-stimulating hormone receptor; assay: Percent inhibition of [125I]NDP-MSH binding to human melanocortin 1 receptor expressed in HEK 293 cells at 10 uM; type: cell-based; settings: HEK293
Target sequence in this assay (Q01726 whole entry, looked up): as the sequence (Q01726 whole entry) above

[9] = Tested for inhibition of NDP-MSH binding; type: functional

T1 sequence (P32245 whole entry): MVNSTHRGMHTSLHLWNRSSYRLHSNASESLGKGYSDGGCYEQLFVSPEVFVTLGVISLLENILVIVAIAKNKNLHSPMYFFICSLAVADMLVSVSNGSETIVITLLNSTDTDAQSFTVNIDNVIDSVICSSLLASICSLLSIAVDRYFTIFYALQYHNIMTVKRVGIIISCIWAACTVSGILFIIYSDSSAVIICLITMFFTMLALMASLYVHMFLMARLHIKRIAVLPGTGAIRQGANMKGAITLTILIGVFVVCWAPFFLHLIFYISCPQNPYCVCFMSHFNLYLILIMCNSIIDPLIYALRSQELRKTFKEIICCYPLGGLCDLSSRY
Sequence of Melanocortin receptor 5 (P33032 whole entry): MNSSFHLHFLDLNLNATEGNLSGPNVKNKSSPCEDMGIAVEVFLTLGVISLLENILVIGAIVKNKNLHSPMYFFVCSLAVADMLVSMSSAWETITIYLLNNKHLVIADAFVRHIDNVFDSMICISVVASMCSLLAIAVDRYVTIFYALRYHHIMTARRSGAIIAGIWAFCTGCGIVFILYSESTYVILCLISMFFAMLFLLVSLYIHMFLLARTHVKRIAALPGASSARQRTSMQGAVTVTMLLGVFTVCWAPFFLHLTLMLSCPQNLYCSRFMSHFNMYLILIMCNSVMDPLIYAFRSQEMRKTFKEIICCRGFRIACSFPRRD
Sequence of Melanocortin receptor 3 (P41968 whole entry): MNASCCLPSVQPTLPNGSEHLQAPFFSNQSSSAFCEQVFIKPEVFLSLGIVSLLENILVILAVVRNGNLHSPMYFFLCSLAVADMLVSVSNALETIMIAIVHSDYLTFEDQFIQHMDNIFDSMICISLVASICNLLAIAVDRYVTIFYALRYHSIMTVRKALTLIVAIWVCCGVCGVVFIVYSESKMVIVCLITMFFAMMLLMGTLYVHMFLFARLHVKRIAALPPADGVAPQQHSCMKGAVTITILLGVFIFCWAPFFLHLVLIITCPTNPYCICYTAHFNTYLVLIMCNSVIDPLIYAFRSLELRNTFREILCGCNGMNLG

Ki (Melanocortin receptor 4 [1]) [nM]	EC50 (Cell line [3]) [nM]	Compound	IA (Cell line [2]) [%]	further results
290	–	NCCC(=O)OC(Cc1ccc(Cl)cc1)C(=O)N1CCN(c2ccccc2CNCCc2cccs2)CC1 (configuration not stated)	<45	–
66	1500	CC(C)(N)C(=O)N[C@H](Cc1ccc(Cl)cc1)C(=O)N1CCN(c2ccccc2CNCCc2cccs2)CC1	80	–
600	8700	N[C@H](Cc1ccc(Cl)cc1)C(=O)N1CCN(c2ccccc2CNCCc2cccs2)CC1	85	–
> 10000	–	O=C(Cc1ccc(Cl)cc1)N1CCN(c2ccccc2CNCCc2cccs2)CC1	<45	–
1800	–	NC(C(=O)N1CCN(c2ccccc2CNCCc2cccs2)CC1)c1ccc(Cl)cc1 (configuration not stated)	<45	–
3800	–	CC(C)(C(=O)N1CCN(c2ccccc2CNCCc2cccs2)CC1)c1ccc(Cl)cc1	<45	–
> 10000	–	O=C(C(O)c1ccc(Cl)cc1)N1CCN(c2ccccc2CNCCc2cccs2)CC1 (configuration not stated)	<45	–
70	–	COCC(=O)N[C@H](Cc1ccc(Cl)cc1)C(=O)N1CCN(c2ccccc2CNCCc2cccs2)CC1	16	–
1000	–	O=C(CCc1ccc(Cl)cc1)N1CCN(c2ccccc2CNCCc2cccs2)CC1	<45	–
6400	–	NCC(Cc1ccc(Cl)cc1)C(=O)N1CCN(c2ccccc2CNCCc2cccs2)CC1 (configuration not stated)	<45	–
21	–	NCCC(=O)N[C@H](Cc1ccc(Cl)cc1)C(=O)N1CCN(c2ccccc2CNCCc2cccs2)CC1	14	IC50 (Cell line [6]): 90 nM; Ki [7]: 1300 nM; Ki (Melanocortin receptor 3): 1000 nM; Ki (Melanocortin receptor 5): 1000 nM
5400	–	NC(CC(=O)N1CCN(c2ccccc2CNCCc2cccs2)CC1)c1ccc(Cl)cc1 (configuration not stated)	<45	–
44	580	NCC(=O)N[C@H](Cc1ccc(Cl)cc1)C(=O)N1CCN(c2ccccc2CNCCc2cccs2)CC1	77	Ki (Melanocortin receptor 3): 1900 nM; Ki (Melanocortin receptor 5): 990 nM; inhibition [8]: 50%
3900	–	NC(Cc1ccc(Cl)cc1)C(=O)N1CCN(c2ccccc2CNCCc2cccs2)CC1 (configuration not stated)	<45	–
46	–	NC1(C(=O)N[C@H](Cc2ccc(Cl)cc2)C(=O)N2CCN(c3ccccc3CNCCc3cccs3)CC2)CC1	12	–

Continued, compound first:

Compound	Ki (Melanocortin receptor 4 [1]) [nM]	EC50 (Cell line [3]) [nM]	IA (Cell line [2]) [%]	further results
CC(NCCNc1cccc2ccccc12)c1ccccc1N1CCN(C(=O)[C@@H](Cc2ccc(Cl)cc2)NC(=O)CCN)CC1 (some centres not stated)	290	–	22	–
O=C(N[C@H](Cc1ccc(Cl)cc1)C(=O)N1CCN(c2ccccc2CNCCc2cccs2)CC1)C1CCCN1 (some centres not stated)	50	1900	56	–
CN(CCc1cccs1)Cc1ccccc1N1CCN(C(=O)[C@@H](Cc2ccc(Cl)cc2)NC(=O)CCN)CC1	220	–	32	–
CCC(NCCc1cccs1)c1ccccc1N1CCN(C(=O)[C@@H](Cc2ccc(Cl)cc2)NC(=O)CCN)CC1 (some centres not stated)	140	–	29	–
O=C(N[C@H](Cc1ccc(Cl)cc1)C(=O)N1CCN(c2ccccc2CNCCc2cccs2)CC1)C1CCCCN1 (some centres not stated)	75	1100	60	–
CC(NC1CCCNC1)c1ccccc1N1CCN(C(=O)[C@@H](Cc2ccc(Cl)cc2)NC(=O)[C@H]2Cc3ccccc3CN2)CC1 (some centres not stated)	–	–	–	EC50 (Cell line [4]): 3.8 nM
O=C(N[C@H](Cc1ccc(Cl)cc1)C(=O)N1CCN(c2ccccc2Cn2cncn2)CC1)[C@H]1Cc2ccccc2CN1	–	–	–	EC50 (Cell line [4]): 80 nM
O=C([C@@H](Cc1ccc(Cl)cc1)NS(=O)(=O)CC(F)(F)F)N1CCN(c2ccccc2CNCCc2cccs2)CC1	410	–	<45	–
CC(N[C@@H]1CCCC[C@H]1N)c1ccccc1N1CCN(C(=O)[C@@H](Cc2ccc(Cl)cc2)NC(=O)CCN)CC1 (some centres not stated)	150	590	64	–
O=C(N[C@H](Cc1ccc(Cl)cc1)C(=O)N1CCN(c2ccccc2CNCCc2cccs2)CC1)C1CCNCC1	26	–	39	–
O=C(N[C@H](Cc1ccc(Cl)cc1)C(=O)N1CCN(c2ccccc2CNCCc2cccs2)CC1)[C@H]1Cc2ccccc2CN1	–	320	100	–
COc1ccc(Br)cc1CCc1c(F)cccc1-c1ncc[nH]1	–	–	–	Ki (Melanocortin receptor 4 [5]): 160 nM
CC(NCCc1cccs1)c1ccccc1N1CCN(C(=O)[C@@H](Cc2ccc(Cl)cc2)NC(=O)CCN)CC1 (some centres not stated)	110	–	32	–
CC(NCc1ccccc1N)c1ccccc1N1CCN(C(=O)[C@@H](Cc2ccc(Cl)cc2)NC(=O)CCN)CC1 (some centres not stated)	120	364	100	–
O=C(N[C@H](Cc1ccc(Cl)cc1)C(=O)N1CCN(c2ccccc2CNCCc2cccs2)CC1)C1CCCNC1 (some centres not stated)	15	–	12	IC50 (Cell line [6]): 36 nM; Ki [7]: 2300 nM; Ki (Melanocortin receptor 3): 1400 nM; Ki (Melanocortin receptor 5): 720 nM
NC(Cc1ccccc1Cl)C(=O)N1CCN(c2ccccc2CNCCc2cccs2)CC1 (configuration not stated)	1000	–	<45	–
O=C(N[C@H](Cc1ccc(Cl)cc1)C(=O)N1CCN(c2ccccc2CNCCc2cccs2)CC1)c1cccnc1	41	–	5	IC50 (Cell line [6]): 880 nM; Ki (Melanocortin receptor 3): 1800 nM; Ki (Melanocortin receptor 5): 730 nM; inhibition [8]: 23%
CC(c1ccccc1N1CCN(C(=O)[C@@H](Cc2ccc(Cl)cc2)NC(=O)CCN)CC1)N1CCN(c2ccccc2)CC1 (some centres not stated)	430	–	35	–
CC(NCCN1CCCCC1)c1ccccc1N1CCN(C(=O)[C@@H](Cc2ccc(Cl)cc2)NC(=O)CCN)CC1 (some centres not stated)	210	–	41	–
COc1ccc2ccccc2c1CCCCN1CCN(CC(c2ccc(F)cc2)N2CCN(C)CC2)CC1 (configuration not stated)	–	–	–	Ki (Melanocortin receptor 4 [5]): 7.9 nM
CC(c1ccccc1N1CCN(C(=O)[C@@H](Cc2ccc(Cl)cc2)NC(=O)CCN)CC1)N1CCN(C)CC1 (some centres not stated)	86	471	59	–
CC(C)CC(N)C(=O)N[C@H](Cc1ccc(Cl)cc1)C(=O)N1CCN(c2ccccc2CNCCc2cccs2)CC1 (some centres not stated)	30	2600	45	–
COc1ccc(Br)cc1CCc1c(Cl)cccc1-c1nc(C)c[nH]1	–	–	–	Ki (Melanocortin receptor 4 [5]): 180 nM
O=C(N[C@H](Cc1ccc(Cl)cc1)C(=O)N1CCN(c2ccccc2CNCCc2cccs2)CC1)C1CCN1 (some centres not stated)	48	1630	47	–
O=C(CC1CCCN1)N[C@H](Cc1ccc(Cl)cc1)C(=O)N1CCN(c2ccccc2CNCCc2cccs2)CC1 (some centres not stated)	40	1800	57	–
CC(Nc1ccccc1N)c1ccccc1N1CCN(C(=O)[C@@H](Cc2ccc(Cl)cc2)NC(=O)CCN)CC1 (some centres not stated)	470	2720	56	–
CN(C)CC(=O)N[C@H](Cc1ccc(Cl)cc1)C(=O)N1CCN(c2ccccc2CNCCc2cccs2)CC1	38	1400	45	–
CC(NCc1ccco1)c1ccccc1N1CCN(C(=O)[C@@H](Cc2ccc(Cl)cc2)NC(=O)CCN)CC1 (some centres not stated)	140	1870	99	–
NCCCC(=O)N[C@H](Cc1ccc(Cl)cc1)C(=O)N1CCN(c2ccccc2CNCCc2cccs2)CC1	14	–	15	IC50 (Cell line [6]): 66 nM; Ki [7]: 1200 nM; Ki (Melanocortin receptor 3): 1400 nM; Ki (Melanocortin receptor 5): 1000 nM
CC(CN1CCN(CC(c2ccc(F)cc2)N2CCN(C)CC2)CC1)C(=O)c1ccccc1 (configuration not stated)	–	–	–	IC50 [9]: 220 nM
